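Tested at 5 concentrations; 48 h exposure; 96-well plates; endpoints linearly interpolated, else capped at highest concentration. GI50: concentration for 50% inhibition of growth.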 Calls of active or inactive are those of the source. No stated cut-off is given here; in the data, active = GI50 up to about 1.1 µM and inactive = higher.
Legend:
Assay in all cases: inhibition of tumour cell growth, NCI panel, 48 h
DU-145 = test system: DU-145
SK-OV-3 = test system: SK-OV-3
SF-295 = test system: SF-295
RPMI-8226 = test system: RPMI-8226
M14 = test system: M14
SR = test system: SR
CAKI-1 = test system: CAKI-1
HCC 2998 = test system: HCC 2998
MDA-MB-435 = test system: MDA-MB-435
UACC-62 = test system: UACC-62
HOP-62 = test system: HOP-62
IGROV-1 = test system: IGROV-1
HL-60 = test system: HL-60
NCI/ADR-RES = test system: NCI/ADR-RES
SK-MEL-5 = test system: SK-MEL-5
OVCAR-4 = test system: OVCAR-4
T47D = test system: T47D
Hs-578T = test system: Hs-578T
786-0 = test system: 786-0
SN12C = test system: SN12C
MDA-MB-231 = test system: MDA-MB-231
OVCAR-3 = test system: OVCAR-3
SNB-19 = test system: SNB-19
SW-620 = test system: SW-620
HCT-15 = test system: HCT-15
NCI-H23 = test system: NCI-H23
Malme-3M = test system: Malme-3M
OVCAR-8 = test system: OVCAR-8
HT-29 = test system: HT-29
UO-31 = test system: UO-31
UACC-257 = test system: UACC-257
NCI-H226 = test system: NCI-H226
SF-539 = test system: SF-539
SK-MEL-2 = test system: SK-MEL-2
A549 = test system: A549
BT-549 = test system: BT-549
LOX IMVI = test system: LOX IMVI
SF-268 = test system: SF-268
NCI-H460 = test system: NCI-H460
CCRF-CEM = test system: CCRF-CEM
U-251 = test system: U-251
MCF7 = test system: MCF7
RXF 393 = test system: RXF 393
HOP-92 = test system: HOP-92
MOLT-4 = test system: MOLT-4
OVCAR-5 = test system: OVCAR-5
EKVX = test system: EKVX
COLO 205 = test system: COLO 205
KM12 = test system: KM12
SK-MEL-28 = test system: SK-MEL-28
A498 = test system: A498
HCT-116 = test system: HCT-116
K562 = test system: K562
PC-3 = test system: PC-3
ACHN = test system: ACHN
MDA-N = test system: MDA-N
SNB-75 = test system: SNB-75
TK-10 = test system: TK-10

Measured: GI50

O=C(Nc1ccc(Cl)cc1)c1cc(S(=O)(=O)Nc2n[nH]c(=O)n2-c2ccccc2)c(S)cc1Cl
inactive: DU-145 > 100 µM | SK-OV-3 > 100 µM | SF-295 > 100 µM | RPMI-8226 > 100 µM | M14 > 100 µM | SR > 100 µM | CAKI-1 > 100 µM | HCC 2998 > 100 µM | MDA-MB-435 > 100 µM | UACC-62 > 100 µM | HOP-62 > 100 µM | IGROV-1 > 100 µM | HL-60 > 100 µM | NCI/ADR-RES > 100 µM | SK-MEL-5 > 100 µM | OVCAR-4 > 100 µM | T47D > 100 µM | Hs-578T > 100 µM | 786-0 > 100 µM | SN12C > 100 µM | MDA-MB-231 > 100 µM | OVCAR-3 6.28 µM | SNB-19 > 100 µM | SW-620 > 100 µM | NCI-H23 > 100 µM | Malme-3M > 100 µM | OVCAR-8 > 100 µM | HT-29 > 100 µM | UO-31 > 100 µM | UACC-257 > 100 µM | NCI-H226 > 100 µM | SF-539 > 100 µM | SK-MEL-2 > 100 µM | A549 > 100 µM | BT-549 > 100 µM | LOX IMVI > 100 µM | SF-268 > 100 µM | NCI-H460 > 100 µM | CCRF-CEM > 100 µM | U-251 > 100 µM | MCF7 > 100 µM | RXF 393 > 100 µM | HOP-92 > 100 µM | MOLT-4 6.22 µM | OVCAR-5 > 100 µM | EKVX > 100 µM | COLO 205 > 100 µM | KM12 > 100 µM | SK-MEL-28 > 100 µM | A498 > 100 µM | HCT-116 > 100 µM
> 100 µM: HCT-15

COCO[C@@H]1C[C@H]2C(O)Nc3ccccc3C(=O)N2C1 (stereo not given in full)
> 100 µM: HCT-15
inactive: DU-145 > 100 µM | SK-OV-3 > 100 µM | SF-295 > 100 µM | RPMI-8226 > 100 µM | M14 > 100 µM | SR > 100 µM | CAKI-1 > 100 µM | HCC 2998 > 100 µM | MDA-MB-435 > 100 µM | UACC-62 > 100 µM | HOP-62 > 100 µM | IGROV-1 > 100 µM | K562 > 100 µM | HL-60 > 100 µM | PC-3 > 100 µM | NCI/ADR-RES > 100 µM | ACHN > 100 µM | SK-MEL-5 > 100 µM | OVCAR-4 > 100 µM | T47D > 100 µM | Hs-578T > 100 µM | MDA-MB-231 > 100 µM | OVCAR-3 > 100 µM | SNB-19 > 100 µM | SW-620 > 100 µM | NCI-H23 > 100 µM | OVCAR-8 > 100 µM | MDA-N > 100 µM | HT-29 > 100 µM | UO-31 > 100 µM | UACC-257 > 100 µM | NCI-H226 > 100 µM | SF-539 > 100 µM | SNB-75 > 100 µM | SK-MEL-2 > 100 µM | A549 > 100 µM | LOX IMVI > 100 µM | SF-268 > 100 µM | NCI-H460 > 100 µM | CCRF-CEM > 100 µM | U-251 > 100 µM | MCF7 > 100 µM | TK-10 > 100 µM | RXF 393 > 100 µM | HOP-92 > 100 µM | MOLT-4 > 100 µM | OVCAR-5 > 100 µM | EKVX > 100 µM | COLO 205 > 100 µM | KM12 > 100 µM | SK-MEL-28 > 100 µM | A498 > 100 µM
